Laboratory results reported in US12712052B2, “Method and system to identify natural products from mass spectrometry and genomics data” (priority 2021, dated 2026).
Converted amounts (≈) assume the structure as drawn. Read-outs that look alike come from different tables or passages of the source. Starred links: 1 amine or outer side, 2 acyl side, 3 side chain; linkers in the order of their positions; H or OH if unused. Positions of bridges follow the written chain, without caps; N, C: chain ends. Non-standard residues stand in square brackets, D forms with d. Residues, ends and D or L forms follow the SMILES beside them. *: point of attachment. hTyr(3S-OH,4S-OH,3'-OSO3H) = N[C@H](C(=O)O)[C@H](O)[C@@H](O)c1ccc(O)c(OS(=O)(=O)O)c1; pTerphenylCO(4''-OnC5H11) = CCCCCOc1ccc(-c2ccc(-c3ccc(C(=O)*)cc3)cc2)cc1; Orn(4R-OH,5R-OH) = O=C([C@H](C[C@@H](O)[C@@H](O)N[*:3])N[*:1])[*:2]; hTyr(3S-OH,4S-OH) = N[C@H](C(=O)O)[C@H](O)[C@@H](O)c1ccc(O)cc1; Pro(3S-OH,4S-Me) = C[C@H]1CN[C@H](C(=O)O)[C@H]1O; X1 = CCCCCOc1ccc(-c2cc(-c3ccc(C(=O)*)cc3)no2)cc1; Gln(3R-OH) = NC(=O)C[C@@H](O)[C@H](N)C(=O)O; Hyp = O=C(O)[C@@H]1C[C@@H](O)CN1

Key:
C. glabrata CDC #0321 = assay: MIC against C. glabrata CDC #0321; format: cell-based; conditions: for MIC: Nakaseomyces glabratus, read-out: minimum inhibitory concentration (MIC)
Experimental: (§1) Direct bioactivity screening experiments of CHM-752 are performed against Candida pathogens (Table 13).

C. glabrata CDC #0318 = assay: MIC against C. glabrata CDC #0318; format: cell-based; conditions: for MIC: Nakaseomyces glabratus, read-out: minimum inhibitory concentration (MIC)
Experimental: as §1

C. albicans ATCC 90028 = assay: MIC against C. albicans ATCC 90028; format: cell-based, Candida albicans; conditions: for MIC: Candida albicans
Experimental: as §1

C. auris CDC #0381 = assay: MIC against C. auris CDC #0381; format: cell-based, Candida auris; conditions: for MIC: Candidozyma auris, read-out: minimum inhibitory concentration (MIC)
Experimental: as §1

C. glabrata CDC #0315 = assay: MIC against C. glabrata CDC #0315; format: cell-based; conditions: for MIC: Nakaseomyces glabratus, read-out: minimum inhibitory concentration (MIC)
Experimental: as §1

C. auris CDC #0389 = assay: MIC against C. auris CDC #0389; format: cell-based, Candida auris; conditions: for MIC: Candidozyma auris, read-out: minimum inhibitory concentration (MIC)
Experimental: as §1

C. glabrata ATCC 36583 = assay: MIC against C. glabrata ATCC 36583; format: cell-based; conditions: for MIC: Nakaseomyces glabratus, ATCC36583, read-out: minimum inhibitory concentration (MIC)
Experimental: as §1

C. albicans MYA-574 = assay: MIC against C. albicans MYA-574; format: cell-based, Candida albicans; conditions: for MIC: Candida albicans
Experimental: as §1

C. auris CDC #0390 = assay: MIC against C. auris CDC #0390; format: cell-based, Candida auris; conditions: for MIC: Candidozyma auris, read-out: minimum inhibitory concentration (MIC)
Experimental: as §1

C. glabrata CDC #0325 = assay: MIC against C. glabrata CDC #0325; format: cell-based; conditions: for MIC: Nakaseomyces glabratus, read-out: minimum inhibitory concentration (MIC)
Experimental: as §1

C. auris CDC #0387 = assay: MIC against C. auris CDC #0387; format: cell-based, Candida auris; conditions: for MIC: Candidozyma auris, read-out: minimum inhibitory concentration (MIC)
Experimental: as §1

C. auris CDC #0385 = assay: MIC against C. auris CDC #0385; format: cell-based, Candida auris; conditions: for MIC: Candidozyma auris, read-out: minimum inhibitory concentration (MIC)
Experimental: as §1

C. auris CDC #0384 = assay: MIC against C. auris CDC #0384; format: cell-based, Candida auris; conditions: for MIC: Candidozyma auris, read-out: minimum inhibitory concentration (MIC)
Experimental: as §1

C. auris CDC #0383 = assay: MIC against C. auris CDC #0383; format: cell-based, Candida auris; conditions: for MIC: Candidozyma auris, read-out: minimum inhibitory concentration (MIC)
Experimental: as §1

[1] = ATCC90028, C. albicans ATCC 90028, read-out: minimum inhibitory concentration (MIC)
[2] = MYA574, C. albicans MYA-574, read-out: minimum inhibitory concentration (MIC)
[3] = ATCC90028, read-out: minimum inhibitory concentration (MIC)

Row | Structure (SMILES) | MIC (C. glabrata CDC #0321; C. glabrata CDC #0321) [µg/mL] | MIC (C. glabrata CDC #0318; C. glabrata CDC #0318) [µg/mL] | MIC (C. albicans ATCC 90028; [1]) [µg/mL] | MIC (C. auris CDC #0381; C. auris CDC #0381) [µg/mL] | MIC (C. glabrata CDC #0315; C. glabrata CDC #0315) [µg/mL] | MIC (C. auris CDC #0389; C. auris CDC #0389) [µg/mL] | MIC (C. glabrata ATCC 36583) [µg/mL] | MIC (C. albicans MYA-574; [2]) [µg/mL] | MIC (C. auris CDC #0390; C. auris CDC #0390) [µg/mL] | MIC (C. glabrata CDC #0325; C. glabrata CDC #0325) [µg/mL] | MIC (C. auris CDC #0387; C. auris CDC #0387) [µg/mL] | MIC (C. auris CDC #0385; C. auris CDC #0385) [µg/mL] | MIC (C. auris CDC #0384; C. auris CDC #0384) [µg/mL] | MIC (C. auris CDC #0383; C. auris CDC #0383) [µg/mL] | MIC (C. glabrata CDC #0321) [µg/mL] | MIC (C. glabrata CDC #0318) [µg/mL] | MIC (C. albicans ATCC 90028; [3]) [µg/mL] | MIC (C. auris CDC #0381) [µg/mL] | MIC (C. glabrata CDC #0315) [µg/mL] | MIC (C. auris CDC #0389) [µg/mL] | further results
1 | C[C@@H](c1ncncc1F)[C@](O)(Cn1cncn1)c1ccc(F)cc1F [VRC, Voriconazole] | 2 (≈ 5.73 µM) | 1 (≈ 2.86 µM) | 0.01 (≈ 0.0286 µM) | 0.03 (≈ 0.0859 µM) | 0.25 (≈ 0.716 µM) | 0.4 (≈ 1.15 µM) | 0.5 (≈ 1.43 µM) | 0.25 (≈ 0.716 µM) | 8 (≈ 22.9 µM) | 16 (≈ 45.8 µM) | 0.06 (≈ 0.172 µM) | 16 (≈ 45.8 µM) | 1 (≈ 2.86 µM) | 4 (≈ 11.5 µM) |  |  |  |  |  |  | 
2 | C[C@@H]1[C@H](O)[C@@H](C)/C=C/C=C/C=C/C=C/C=C/C=C/C=C/[C@H](O[C@@H]2O[C@H](C)[C@@H](O)[C@H](N)[C@@H]2O)C[C@@H]2O[C@](O)(C[C@@H](O)C[C@@H](O)[C@H](O)CC[C@@H](O)C[C@@H](O)CC(=O)O[C@H]1C)C[C@H](O)[C@H]2C(=O)O [AMP, Amphotericin B] |  |  |  |  |  |  |  |  |  |  |  |  |  |  |  |  |  |  |  |  | minimum inhibitory concentration (MIC) (C. glabrata CDC #0321; C. glabrata CDC #0321): 0.09 µg/mL (≈ 0.0974 µM); minimum inhibitory concentration (MIC) (C. glabrata CDC #0318; C. glabrata CDC #0318): 0.19 µg/mL (≈ 0.206 µM); minimum inhibitory concentration (MIC) (C. albicans ATCC 90028; C. albicans ATCC 90028): 0.13 µg/mL (≈ 0.141 µM); minimum inhibitory concentration (MIC) (C. auris CDC #0381; C. auris CDC #0381): 0.13 µg/mL (≈ 0.141 µM); minimum inhibitory concentration (MIC) (C. glabrata CDC #0315; C. glabrata CDC #0315): 0.38 µg/mL (≈ 0.411 µM); minimum inhibitory concentration (MIC) (C. auris CDC #0389; C. auris CDC #0389): 4 µg/mL (≈ 4.33 µM); minimum inhibitory concentration (MIC) (C. glabrata ATCC 36583): 0.13 µg/mL (≈ 0.141 µM); minimum inhibitory concentration (MIC) (C. albicans MYA-574; C. albicans MYA-574): 0.13 µg/mL (≈ 0.141 µM); minimum inhibitory concentration (MIC) (C. auris CDC #0390; C. auris CDC #0390): 4 µg/mL (≈ 4.33 µM); minimum inhibitory concentration (MIC) (C. glabrata CDC #0325; C. glabrata CDC #0325): 0.25 µg/mL (≈ 0.271 µM); minimum inhibitory concentration (MIC) (C. auris CDC #0387; C. auris CDC #0387): 0.75 µg/mL (≈ 0.812 µM); minimum inhibitory concentration (MIC) (C. auris CDC #0385; C. auris CDC #0385): 0.5 µg/mL (≈ 0.541 µM); minimum inhibitory concentration (MIC) (C. auris CDC #0384; C. auris CDC #0384): 0.5 µg/mL (≈ 0.541 µM); minimum inhibitory concentration (MIC) (C. auris CDC #0383; C. auris CDC #0383): 0.38 µg/mL (≈ 0.411 µM)
3 | OC(Cn1cncn1)(Cn1cncn1)c1ccc(F)cc1F [FLC, Fluconazole] | 64 (≈ 209 µM) | 32 (≈ 104 µM) | 0.25 (≈ 0.816 µM) | 4 (≈ 13.1 µM) | 4 (≈ 13.1 µM) | 256 (≈ 836 µM) | 8 (≈ 26.1 µM) | 64 (≈ 209 µM) | > 256 | 128 (≈ 418 µM) | 8 (≈ 26.1 µM) | > 256 | 128 (≈ 418 µM) | 128 (≈ 418 µM) |  |  |  |  |  |  | 
4 | CCCCCOc1ccc(-c2cc(-c3ccc(C(=O)N[C@H]4C[C@@H](O)[C@@H](O)NC(=O)[C@@H]5[C@@H](O)[C@@H](C)CN5C(=O)[C@H]([C@H](O)CC(N)=O)NC(=O)[C@H]([C@H](O)[C@@H](O)c5ccc(O)c(OS(=O)(=O)O)c5)NC(=O)[C@@H]5C[C@@H](O)CN5C(=O)[C@H]([C@@H](C)O)NC4=O)cc3)no2)cc1 [MF, Micafungin] (X1-[Orn(4R-OH,5R-OH)]T[Hyp][hTyr(3S-OH,4S-OH,3'-OSO3H)][Gln(3R-OH)][Pro(3S-OH,4S-Me)]; lactam 1-C) |  |  |  |  |  |  |  |  |  |  |  |  |  |  | 1 (≈ 0.787 µM) | 4 (≈ 3.15 µM) | 0.02 (≈ 0.0157 µM) | 0.13 (≈ 0.102 µM) | 4 (≈ 3.15 µM) | 0.25 (≈ 0.197 µM) | MIC (C. albicans MYA-574; MYA574, read-out: minimum inhibitory concentration (MIC)): 0.06 µg/mL (≈ 0.0472 µM); MIC (C. auris CDC #0390): 0.25 µg/mL (≈ 0.197 µM); MIC (C. glabrata CDC #0325): 4 µg/mL (≈ 3.15 µM); MIC (C. auris CDC #0387): 0.5 µg/mL (≈ 0.394 µM); MIC (C. auris CDC #0385): 0.5 µg/mL (≈ 0.394 µM); MIC (C. auris CDC #0384): 2 µg/mL (≈ 1.57 µM); MIC (C. auris CDC #0383): 1 µg/mL (≈ 0.787 µM)
5 | CCCCCOc1ccc(-c2ccc(-c3ccc(C(=O)N[C@H]4C[C@@H](O)[C@@H](O)NC(=O)[C@@H]5[C@@H](O)[C@@H](C)CN5C(=O)[C@H]([C@@H](C)O)NC(=O)[C@H]([C@H](O)[C@@H](O)c5ccc(O)cc5)NC(=O)[C@@H]5C[C@@H](O)CN5C(=O)[C@H]([C@@H](C)O)NC4=O)cc3)cc2)cc1 [ANI, Anidulafungin] ({pTerphenylCO(4''-OnC5H11)}-[Orn(4R-OH,5R-OH)]T[Hyp][hTyr(3S-OH,4S-OH)]T[Pro(3S-OH,4S-Me)]; lactam 1-C) |  |  |  |  |  |  |  |  |  |  |  |  |  |  | 2 (≈ 1.75 µM) | 4 (≈ 3.51 µM) | 0.01 (≈ 0.00877 µM) | 0.25 (≈ 0.219 µM) | 2 (≈ 1.75 µM) | 1 (≈ 0.877 µM) | MIC (C. auris CDC #0390): 1 µg/mL (≈ 0.877 µM); MIC (C. glabrata CDC #0325): 4 µg/mL (≈ 3.51 µM); MIC (C. auris CDC #0387): 0.5 µg/mL (≈ 0.438 µM); MIC (C. auris CDC #0385): 1 µg/mL (≈ 0.877 µM); MIC (C. auris CDC #0384): 2 µg/mL (≈ 1.75 µM); MIC (C. auris CDC #0383): 1 µg/mL (≈ 0.877 µM)
6 | CC[C@H](C)C[C@H](C)CCCCCCCCC(=O)N[C@H]1C[C@@H](O)[C@@H](NCCN)NC(=O)[C@@H]2[C@@H](O)CCN2C(=O)[C@H]([C@H](O)CCN)NC(=O)[C@H]([C@H](O)[C@@H](O)c2ccc(O)cc2)NC(=O)[C@@H]2C[C@@H](O)CN2C(=O)[C@H]([C@@H](C)O)NC1=O [CAS, Caspofungin] | 4 (≈ 3.66 µM) | 16 (≈ 14.6 µM) | 0.5 (≈ 0.457 µM) | 0.13 (≈ 0.119 µM) | 16 (≈ 14.6 µM) | 0.5 (≈ 0.457 µM) | 0.5 (≈ 0.457 µM) | 0.5 (≈ 0.457 µM) | 0.5 (≈ 0.457 µM) | > 16 | 0.25 (≈ 0.229 µM) | 0.5 (≈ 0.457 µM) | 16 (≈ 14.6 µM) | 0.25 (≈ 0.229 µM) |  |  |  |  |  |  | 
